Data on eleven compounds can be found in patent US7030096B1, “Method of enhancing relaxation of penile smooth muscle by introduction of DNA encoding maxi-K potassium channel protein” (Albert Einstein College of Medicine of Yeshiva University, priority 1997, dated 2006).

In assay [1] the test system is precontracted corporal tissue strips. The following applies: from both animals and humans; cited from earlier work.
A further assay deals with monkeys and humans. The following applies: cited from earlier work.
The subject of assay [2] is isolated human corporal tissue strips. The class given is cell-based.
In assay [3] the target is T1, maxi-K channel (Homo sapiens, UniProt Q12791). The class given is cell-based.
T1 sequence (Q12791 whole entry): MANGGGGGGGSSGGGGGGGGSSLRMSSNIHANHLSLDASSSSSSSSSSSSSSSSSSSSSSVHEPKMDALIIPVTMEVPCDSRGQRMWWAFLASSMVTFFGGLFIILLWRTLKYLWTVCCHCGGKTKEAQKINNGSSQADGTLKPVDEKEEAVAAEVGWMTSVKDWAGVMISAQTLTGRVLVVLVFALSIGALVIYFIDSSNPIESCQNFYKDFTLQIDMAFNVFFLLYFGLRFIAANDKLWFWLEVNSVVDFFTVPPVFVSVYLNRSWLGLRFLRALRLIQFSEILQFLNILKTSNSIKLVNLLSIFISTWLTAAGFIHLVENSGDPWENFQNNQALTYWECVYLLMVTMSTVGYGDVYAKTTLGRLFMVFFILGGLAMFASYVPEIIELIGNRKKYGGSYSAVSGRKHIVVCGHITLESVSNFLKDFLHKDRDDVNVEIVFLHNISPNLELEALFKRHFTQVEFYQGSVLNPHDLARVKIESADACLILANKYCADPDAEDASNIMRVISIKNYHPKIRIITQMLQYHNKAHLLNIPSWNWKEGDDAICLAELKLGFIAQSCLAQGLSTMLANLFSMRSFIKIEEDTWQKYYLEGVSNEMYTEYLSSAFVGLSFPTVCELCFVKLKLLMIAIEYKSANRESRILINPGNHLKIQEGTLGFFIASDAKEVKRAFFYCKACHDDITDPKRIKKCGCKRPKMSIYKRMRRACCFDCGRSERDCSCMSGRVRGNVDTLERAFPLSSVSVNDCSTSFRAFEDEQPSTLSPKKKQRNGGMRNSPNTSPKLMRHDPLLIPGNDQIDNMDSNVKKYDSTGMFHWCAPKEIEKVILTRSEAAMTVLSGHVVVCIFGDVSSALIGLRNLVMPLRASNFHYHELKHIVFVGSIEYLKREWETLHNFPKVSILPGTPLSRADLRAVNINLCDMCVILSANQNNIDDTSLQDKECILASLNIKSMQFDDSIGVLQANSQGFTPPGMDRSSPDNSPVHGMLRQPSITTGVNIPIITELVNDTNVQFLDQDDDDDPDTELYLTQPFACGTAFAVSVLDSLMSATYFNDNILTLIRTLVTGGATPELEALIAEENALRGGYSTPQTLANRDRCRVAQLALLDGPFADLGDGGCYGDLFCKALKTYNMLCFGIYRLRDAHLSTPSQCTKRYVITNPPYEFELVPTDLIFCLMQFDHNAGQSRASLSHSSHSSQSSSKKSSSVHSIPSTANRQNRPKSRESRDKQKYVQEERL
The subject of assay [4] is isolated human corporal tissue strips. The following applies: cited from earlier work.
Another assay deals with L-type Ca^2+ channel. The following applies: cited from earlier work.
The next assay has as its system corporal smooth muscle. The following applies: cited from earlier work.
The subject of another assay is KATP channel. The following applies: Table 4; cited from earlier work.
The subject of assay [5] is cultured human corporal smooth muscle cells. Kind of assay: Resting and ET-1-induced intracellular calcium in fura-2-loaded cultured cells. The class given is cell-based. The following applies: transfection with hSlo cDNA or preincubation with PGE1 (500 nM). As to the method:
Urol., 155:[…], 1996). This decrease is indistinguishable from the decrease seen in the absence of extracellular Ca^2+ (in 2 mM EGTA), or when cells are preincubated with either nifedipine (Zhao and Christ, J. Urol., 154:1571-79, 1995) or verapamil, both of which are blockers of the L-type voltage-dependent calcium channel. [table]
On the technique in general: A change in cytosolic calcium serves as a functional read-out for many receptors and channels.

The test system is the same in assay [6]. The following applies: preincubation with 500 nM PGE1, cited from earlier work.
For assay [7], the target named is T1, maxi-K channel. The following applies: all four recording modes; cited from earlier work.
The target of the next assay is KCa channel (Homo sapiens, UniProt Q12791). The following applies: Table 4; cited from earlier work.
KCa channel, sequence (Q12791 whole entry): as above

Read-outs that look alike come from different tables or passages of the source. Where no end group is shown, it is not given here.

For `CC1(C)Oc2ccc(C#N)cc2[C@@H](N2CCCC2=O)[C@@H]1O` [lemakalim], the “effect on precontracted corporal tissue strips” value in assay [1] is on record as “relax”. Also, the “effect when injected intracavernosally” value in the assay on monkeys and humans is “elicit an erection”.
On to `O=[N+]([O-])OCC(CO[N+](=O)[O-])O[N+](=O)[O-]` [NTG, nitroglycerine], for which the “percent relaxation response elicited by 100 nM nitroglycerine” value in assay [2] is given as 20.3%±3.2. Besides, at maxi-K channel [3], the Channel activity increased entry is on record as “YES” and the “maxi-K channel activity (attached patch recording mode)” value is listed as “increase in maxi-K channel activity”. The “expected percent relaxation response elicited by 100 nM nitroglycerine” value in assay [4] is recorded as 50.1%. Besides, in the assay with L-type Ca^2+ channel, the “Channel Type Affected: L-type Ca^2+” value is on record as “decreases”. In addition, the “Effect on Smooth Muscle Tone” value with corporal smooth muscle was “decreased tone”.
Consider `COc1ccc(Cl)cc1C(=O)NCCc1ccc(S(=O)(=O)NC(=O)NC2CCCCC2)cc1` [Glibenclamide, glibenclamide], for which, in the assay on KATP channel, the “Channel Type Affected: KATP” value is reported as “KATP decreases”. Besides, the “Effect on Smooth Muscle Tone” value in the assay with corporal smooth muscle (Table 4) is “increased tone”.
Regarding `CCCCC[C@H](O)/C=C/[C@H]1[C@H](O)CC(=O)[C@@H]1CCCCCCC(=O)O` [PGE1, prostaglandin E1], in [5], the “ET-1-induced calcium response decreased” value is listed as “YES”. The Channel activity increased result at maxi-K channel [3] (100 μM NTG or 30 nM–30 μM PGE1) is on record as “YES”. The “decrease in peak amplitude of the ET-1-induced (50 nM) calcium transient” value in assay [6] is reported as “≈ 40%”. Further, the “peak amplitude of the ET-1-induced (50 nM) calcium transient above baseline” value in [6] (control value 161.5±19.5 nM) was 102.6 ± 9.5 nM. Moreover, the “activity of the maxi-K channel” value on maxi-K channel [7] is reported as “concentration-dependent increase”. The “Channel Type Affected: KCa” value on KCa channel is “KCa increases”. Besides, the “Effect on Smooth Muscle Tone” value in the assay with corporal smooth muscle (Table 4) is reported as “decreased tone”.
As to `CC1(C)Oc2ccc(C#N)cc2C(N2CCCC2=O)C1O` (stereo not shown) [cromakalim], in assay [1], the “effect on precontracted corporal tissue strips” value is “relax”. The “effect when injected intracavernosally” value in the assay on monkeys and humans is given as “elicit an erection”.
Consider `CC(N/C(=N\C#N)Nc1ccncc1)C(C)(C)C` (stereo not shown) [pinacidil], for which the “Channel Type Affected: KATP” value in the assay on KATP channel is “KATP increases”. In addition, in assay [1], the “effect on precontracted corporal tissue strips” value is recorded as “relax”. The “effect when injected intracavernosally” value in the assay on monkeys and humans is “elicit an erection”. In the assay with corporal smooth muscle (Table 4), the “Effect on Smooth Muscle Tone” value is “decreased tone”.
As for `CC[N+](CC)(CC)CC` [TEA, tetraethylammonium], in assay [2], the PE-induced contraction increased result was “YES”, the Relaxation response decreased result was “YES”, the “Resting corporal smooth muscle tone increased” value is listed as “YES” and the “effect on NTG-induced relaxation response (100 nM)” value was “significant attenuation”. Further, the “Channel Type Affected: KCa” value at KCa channel is recorded as “KCa decreases”. In addition, the “Effect on Smooth Muscle Tone” value with corporal smooth muscle is “increased tone”.
Turning to `O=C(NCCO[N+](=O)[O-])c1cccnc1` [nicorandil], the “effect on precontracted corporal tissue strips” value in [1] is “relax”. In the assay on monkeys and humans, the “effect when injected intracavernosally” value is recorded as “elicit an erection”.
On to `[Cl-].[K+]` [KCl], for which the “Channel Type Affected: KATP” value in the assay on KATP channel is on record as “KATP increases”. The “Effect on Smooth Muscle Tone” value in the assay on corporal smooth muscle (Table 4) is on record as “modulates increase”.
Regarding “endothelin-1 (CSCSSLMDKECVYFCHLDIIW; ends and bridges not checked; cysteine pairing not given here; UniProt P05305 53-73, looked up) [ET-1]”, the “Channel Type Affected: L-type Ca^2+” value in the assay with L-type Ca^2+ channel (Table 4) is given as “increases”. The “Effect on Smooth Muscle Tone” value with corporal smooth muscle (Table 4) is on record as “increased tone”.
On to `CNC[C@H](O)c1cccc(O)c1` [PE, phenylephrine], for which, at KCa channel, the “Channel Type Affected: KCa” value was “KCa increases”. For the same compound, the “Effect on Smooth Muscle Tone” value in the assay with corporal smooth muscle (Table 4) was “modulates increase”.
